This note sets out measurements from US7993884B2, “Beta-xylosidase for conversion of plant cell wall carbohydrates to simple sugars” (The United States of America as represented by the …, priority 2006, dated 2011).

Changes are numbered by the printed parent chain. Numbers in names are those of the source. Where “and” joins values, the source holds several entries; their conditions need not be identical. Identical values can stand only once. Entries after “also recorded” stand apart in the source; their conditions may differ. Like-named read-outs stand apart in the source and are kept apart here.

The target of data set [1] is Selenomonas ruminantium GA192 β-D-xylosidase (SXA, parent SEQ ID NO: 2) variant D14A (Pseudoselenomonas ruminantium, UniProt O52575, D14A). As to the kind of experiment: Steady-state kinetics of SXA mutant D14A with 4NP substrates.
The target of data set [2] is T1, SXA (Selenomonas ruminantium, UniProt O52575). Briefly: biochemical. The settings on record: read-out: Km^4NPA, pH 5.3, 25° C.
The target of data set [3] is T1, SXA. Particulars: pH 5.3 and 25° C., relative to A2.
The target in data set [4] is T1, SXA. As to the kind of experiment: SXA-catalyzed hydrolysis of 4NP-glycoside substrates, initial rates (Methods A and B).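 As to all read-outs here: initial rates from 4-nitrophenol release, tracked by absorbance over roughly 0.3 min and converted using product-minus-substrate extinction differences, in 1 mL mixtures started by enzyme addition.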 The data set is classed as biochemical. The settings on record: for Km / kcat Rel. to η/ηo = 1: Exper. 2: MES pH 6.00, Method B.
Data set [5] deals with T2, Selenomonas ruminantium GA192 β-D-xylosidase (SXA), wild type, SEQ ID NO: 2 (Pseudoselenomonas ruminantium, UniProt O52575). As to the kind of experiment: Steady-state kinetics of SXA with 4NP-glycosides (Example 1, Methods A and B).
Data set [6] addresses Selenomonas ruminantium GA192 β-D-xylosidase (SXA, parent SEQ ID NO: 2) variant E186A (Pseudoselenomonas ruminantium, UniProt O52575, E186A). As to the kind of experiment: Steady-state kinetics of SXA mutant E186A with 4NP substrates.
Data set [7] addresses T2, Selenomonas ruminantium GA192 β-D-xylosidase (SXA), wild type, SEQ ID NO: 2. As to the kind of experiment: Steady-state kinetics of SXA with 4NPX2, A2 and X2-X6 by HPLC (Example 1).
Data set [8] deals with β-D-xylosidase/α-L-arabinofuranosidase (Selenomonas ruminantium, UniProt O52575). As to the kind of experiment: Inhibition of the enzyme by monosaccharides and ethanol (detailed description). Type of data set: biochemical, Selenomonas ruminantium GA192.
Data set [9] deals with T1, SXA. Briefly: biochemical. The settings on record: inhibition of SXA-catalyzed hydrolysis of 4NPX, I=0.3 M, competitive. The method, then: Reactions were monitored continuously for 0.3 min at 400 nm to determine initial rates. Initial-rate data were fitted to equation 6, where v is the initial rate, kcat is the rate of the reaction when saturated with substrate, S is the substrate concentration, Km is the Michaelis constant, I is the inhibitor concentration (e.g., D-glucose), and Ki is the dissociation constant of inhibitor from the enzyme-inhibitor complex.

The target of data set [10] is T1, SXA. The settings on record: pH 5.3, 55° C. The method, then: Initial rates were determined by monitoring reactions continuously at 400 nM for 0.3 min. […] Relative activity remaining data were fitted to equation 3, which describes a first order decay: A is the relative activity remaining at varied times of preincubation, A0 is the relative activity remaining at time zero of the preincubation, kobs is the first order rate constant, and t is the time of preincubation. Apparent affinities for D-xylose and D-glucose were determined by fitting kobs values from the monosaccharide protection studies to equation 4 where kobs is the observed first order rate constant for the decay, k0 is the first order rate constant in the absence of ligand (e.g., D-xylose), I is the ligand concentration in the preincubation mixture, and Ki is the dissociation constant of ligand from the enzyme-ligand complex.
Ligand protection studies contained varied concentrations of D-xylose or D-glucose in the pH 5.3 preincubation buffer at 55° C.

Data set [11] deals with T1, SXA. As to the kind of experiment: pH stability of SXA and protection from low pH inactivation at pH 4.0 by monosaccharides. The settings on record: pH 4.0, 25° C.
Substrate in data set [12]: O=[N+]([O-])c1ccc(O[C@@H]2OC[C@@H](O)[C@H](O)[C@H]2O)cc1
Briefly: purified protein, by the assay type. Particulars: other: 100 mM succinate-NaOH, pH 5.3, 25° C, Method A.

Substrate in data set [13]: O=[N+]([O-])c1ccc(O[C@@H]2O[C@@H](CO)[C@H](O)[C@H]2O)cc1
As to the kind of experiment: purified protein, by the assay type. The settings on record: other: 100 mM succinate-NaOH, pH 5.3, 25° C, Method A.

Where [14] appears, read: 100 mM succinate-NaOH, pH 5.3, 25° C, Method A.
The mark [15] stands for this setting: I=0.3 M, 25° C., Eq. 7 (4NPX), Eq. 5 (4NPA).

As to `O=[N+]([O-])c1ccc(O[C@@H]2O[C@@H](CO)[C@H](O)[C@H]2O)cc1` [4NPA, 4-nitrophenyl-α-L-arabinofuranoside], the kcat in data set [1] (setting [14]) stood at 0.000936 ± 0.000012 s⁻¹; in [5] (100 mM MES-NaOH, pH 6.00, 25° C, Method B, 50% sucrose, η/ηo 6.85), 2.87 ± 0.12 s⁻¹; in data set [5] (100 mM MES-NaOH, pH 6.00, 25° C, Method B, η/ηo 1.00), 2.99 ± 0.05 s⁻¹; in data set [5] (100 mM succinate-NaOH, pH 5.3, 25° C, Method A, no sucrose), 2.68 ± 0.06 s⁻¹; in data set [6] (setting [14]), 0.000239 ± 0.000008 s⁻¹. Besides, the “factor by which kcat is degraded vs wild type” value in data set [1] (pH 5.3, 25° C.) turned out to be 3000; in [6] (pH 5.3, 25° C.) it was 11000. Further, the Km at SXA [2] (FIG. 22A experiment (D-xylose α:β 6:1)) came to 880 ± 130 µM; on SXA [2] (FIG. 22B experiment (D-xylose α:β 1:2.5)) it was 900 ± 13 µM; on SXA [4] (η/ηo 1.00), 745 ± 36 µM; at SXA [4] (η/ηo 6.85 (50% sucrose)), 754 ± 101 µM. In addition, at SXA [3], the relative kcat values is 34. The “pH-independent kcat/Km” value at SXA [4] is recorded as 5.10±0.07 s^−1 mM^−1. The “Relative Rate” value at SXA [4] (5 mM 4NP glycoside, 100 mM succinate-NaOH, pH 5.3, 25° C., Method A, initial rate relative to 4NPX) came to 0.101 ± 0.003. The “pH-independent 1/Km” value on SXA [4] (1/Km versus pH, Eq. 4 (4NPX), Eq. 5 (4NPA)) is reported as 1.60±0.02 mM^−1. Also, the “kcat Rel. to η/ηo = 1” value is on record as 1.00 on SXA [4] (η/ηo 1.00); 0.960 ± 0.040 on SXA [4] (η/ηo 6.85 (50% sucrose)); 0.960 ± 0.040 in data set [5] (pH 6.00, η/ηo 6.85). Moreover, the “pKa of kcat versus pH (single group)” value on SXA [4] (I=0.3 M, 25° C., Eq. 4) is 3.6 and 3.64±0.10. Moreover, the “pKa1 of kcat/Km versus pH” value at SXA [4] (I=0.3 M, 25° C., Eq. 5) was ~5.0 and 5.06±0.02. Moreover, the “pKa2 of kcat/Km versus pH” value at SXA [4] (I=0.3 M, 25° C., Eq. 5) came out at 7.20±0.02. In addition, the “pKa1 of 1/Km versus pH” value at SXA [4] (setting [15]) was 5.00±0.03. Moreover, the “pKa2 of 1/Km versus pH” value at SXA [4] (setting [15]) is listed as 7.16±0.03. The “binding to dianionic SXA (D14^−E186^−)” value on SXA [4] (from pH dependencies) is “weakly, if at all; also recorded: no affinity”. Besides, the “affinity of dianionic SXA (D14^−E186^−), higher than that of monoanionic SXA (D14^−E186^H)” value in data set [5] (from pH dependence of 1/Km) is given as “no affinity”. For the same molecule, the “kcat factor between 4NPA and A2” value in data set [7] (4NPA larger / A2 reduced) amounted to 36 fold. The molecule further gave a relative kcat value in data set [7] (pH 5.3, 25° C, A2 = 1) of 34.
Turning to `O=C[C@H](O)[C@@H](O)[C@H](O)[C@H](O)CO` [D-glucose], the Ki in data set [8] was 27 ± 0.4 mM; at SXA [9] (pH 5.3, 25° C.), 79 ± 2.3 mM; at SXA [9] (pH 7.0, 25° C.) it was 34.5 ± 0.7 mM; at SXA [9] (pH 9.0, 25° C.), 18.7 ± 0.6 mM. The “kobs of SXA inactivation in presence of monosaccharide” value on SXA [10] (93.5 mM) was 0.00949 ± 0.00069 min⁻¹; on SXA [10] (187 mM), 0.00588 ± 0.00077 min⁻¹; on SXA [10] (280 mM), 0.00445 ± 0.00081 min⁻¹; at SXA [10] (374 mM), 0.00336 ± 0.00095 min⁻¹; at SXA [11] (234 mM) it was 0.0210 ± 0.0016 min⁻¹; at SXA [11] (467 mM) it was 0.0124 ± 0.0007 min⁻¹. The KI (inactivation) at SXA [10] (read-out: Ki, dissociation constant from protection against thermal inactivation, kobs fitted to equation 4) was 56.1 ± 0.8 mM.
For the molecule `O=C[C@H](O)[C@@H](O)[C@@H](O)CO` [L-arabinose], the Ki in data set [8] (read-out: Ki) was determined as 20 ± 0.5 mM.

B1: Selenomonas ruminantium GA192 β-D-xylosidase (SXA, parent SEQ ID NO: 2) variant E186A (Pseudoselenomonas ruminantium; E186A) (protein)
chain: MNIQNPVLKGFNPDPSIVRAGDDYYIATSTFEWFPGVQIHHSKDLVHWHLVAHPLSTTEFLDMKGNPDSGGIWAPDLSYADGKFWLIYTDVKVVDGMWKDCHNYLTTAEDIKGPWSKPILLNGAGFDASLFHDPSGKKYLVNMYWDQRVYHHNFYGIALQEYSVAEEKLIGKPEIIYKGTDIAYTAGPHLYYINDMYYLMTAEGGTTYQHSETIARSKTIHGPYEIQPDYPLLSAWKEVHNPLQKCGHASLVETQNGQWYLAHLTGRPLPAPAGFPSREREQHAFCPLGRETAIQKIEWQDGWPVVVGGQQGSLEVEAPDLPQQEWAPTYEERDDFDKDTLNINFQTLRIPFSEHLGSLTARPGFLRLYGRESLQSKFTQAHIARRWQSFNFDAGTSVEFSPNSFQQMAGLTCYYNTENWSSIHVTWNEEKGRIIDLVTADNGTFSMPLAGAEIPIPDEVKTVHFKVSVRGRIYQYAYSFDGETFHTLPIELPSWKLSDDYVRGGGFFTGAFVGINAIDITGTALPADFDYFTYKELD
In the case of B1, the Km in data set [12] worked out at 1.10 ± 0.05 mM; in data set [13], 1.32 ± 0.11 mM.

B2: Selenomonas ruminantium GA192 β-D-xylosidase (SXA, parent SEQ ID NO: 2) variant H248A (Pseudoselenomonas ruminantium; H248A) (protein)
chain: B1 chain with A186E, H248A
On to B2, for which the Km in data set [12] came to 1.05 ± 0.07 mM.

B3: Selenomonas ruminantium GA192 β-D-xylosidase (SXA, parent SEQ ID NO: 2) variant D14A (Pseudoselenomonas ruminantium; D14A) (protein)
chain: B1 chain with D14A, A186E
Take B3: the Km is reported as 0.777 ± 0.036 mM in [12] and 0.771 ± 0.029 mM in data set [13].

B4: Selenomonas ruminantium GA192 β-D-xylosidase (SXA, parent SEQ ID NO: 2) variant R290A (Pseudoselenomonas ruminantium; R290A) (protein)
chain: B1 chain with A186E, R290A
As to B4, the Km in data set [12] (not well determined (highest 4NPX 5 mM)) was 50.3 ± 8.8 mM.

As usually defined, the kcat is the number of substrate molecules converted per active site and unit of time at saturation. Broadly, the Km is the substrate concentration at which the rate is half of its maximum. The Ki is the equilibrium dissociation constant of an inhibitor or competing ligand from its target.
